From patent US7442554B2, “Compositions and methods involving glucocorticoid receptor site II” (Bristol-Myers Squibb Company, priority 2002, dated 2008) come the findings set out here.

Each structure is given as a SMILES string. Entries after “also recorded” stand apart in the source; their conditions may differ. Like-named read-outs stand apart in the source and are kept apart here.

The target in assay [1] is T1, Site II on GR (Homo sapiens, UniProt P04150).
T1 construct: recombinantly expressed human full-length glucocorticoid receptor; purchased Panvera Co., Madison, Wis
T1 sequence (P04150 1-777): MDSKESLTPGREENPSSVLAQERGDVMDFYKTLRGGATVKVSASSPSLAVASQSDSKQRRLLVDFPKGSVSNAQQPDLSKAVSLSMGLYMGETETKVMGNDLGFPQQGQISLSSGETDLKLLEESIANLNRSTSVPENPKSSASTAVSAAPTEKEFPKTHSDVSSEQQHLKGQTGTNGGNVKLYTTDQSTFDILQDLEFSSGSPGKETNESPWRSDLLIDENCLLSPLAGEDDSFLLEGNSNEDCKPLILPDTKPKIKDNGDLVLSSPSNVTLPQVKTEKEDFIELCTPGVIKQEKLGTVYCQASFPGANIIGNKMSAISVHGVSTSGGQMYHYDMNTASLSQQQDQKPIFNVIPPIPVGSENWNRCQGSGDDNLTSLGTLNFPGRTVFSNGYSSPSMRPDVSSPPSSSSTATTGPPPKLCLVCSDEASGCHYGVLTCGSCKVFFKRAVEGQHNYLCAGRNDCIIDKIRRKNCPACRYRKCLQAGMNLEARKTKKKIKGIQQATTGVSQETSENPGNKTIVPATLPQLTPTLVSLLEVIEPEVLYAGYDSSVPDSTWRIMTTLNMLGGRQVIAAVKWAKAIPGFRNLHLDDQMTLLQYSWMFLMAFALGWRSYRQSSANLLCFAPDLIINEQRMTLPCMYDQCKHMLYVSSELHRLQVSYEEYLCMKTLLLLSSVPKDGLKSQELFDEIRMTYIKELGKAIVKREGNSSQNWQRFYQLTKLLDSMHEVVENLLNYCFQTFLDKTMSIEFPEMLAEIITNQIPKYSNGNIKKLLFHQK
The assay can be described thus: Indirect Site II assay: modified FITC-dexamethasone FP assay with Compound D. The class given is binding. How it is done: In order to measure the binding of putative Site II compounds to GR we utilized the Glucocorticoid receptor competitor assay kit (Panvera Co., Madison, Wis.) in a modified version of the FITC-dexamethasone fluorescence polarization assay described in Example 2. In this assay, Compound D was added at a concentration of 200 nM, which yields approximately 50% inhibition of FITC-dexamethasone binding. Compound D (an R enantiomer) is Compound 50 of Example 1. Compound D is a ligand of Site II that inhibits via Site II FITC-dexamethasone binding to GR. […] These competitor Site II ligands, all compounds of Example 1 and all S enantiomers, were: Compound A; Compound C, which is the S enantiomer of Compound D; and Compound E, yet another S enantiomer of Example 1. If the competitor compound binds to Site II and displaces Compound D, then FITC-dexamethasone should rebind to GR. […] This assay can therefore measure the relative binding of compounds to the Site II on GR.

Assay [2] deals with T2, human full-length glucocorticoid receptor (Homo sapiens, UniProt P04150).
T2 construct: recombinantly expressed human full-length glucocorticoid receptor; purchased Panvera Co., Madison, Wis
T2 sequence (P04150 1-777): T1 sequence (P04150 1-777)
The assay can be described thus: GR Site I binding assay (FITC-dexamethasone fluorescence polarization, Panvera kit). How it is done: In order to measure the binding of compounds to Site I on the glucocorticoid receptor a commercially available kit was used (Glucocorticoid receptor competitor assay kit, Panvera Co., Madison, Wis.). Briefly, a cell lysate containing recombinantly expressed human full-length glucocorticoid receptor was mixed with a fluorescently labeled glucocorticoid (4 nM FITC-dexamethasone) plus or minus test molecule. After one hour at room temperature, the fluorescence polarization (FP) of the samples were measured.

In assay [3] the test system is AP-1 induced transcriptional activity. The assay can be described thus: Cellular transrepressional assay (AP-1 luciferase reporter, A549 cell, PMA). The class given is cell-based. The conditions noted are these: for IC50: read-out: IC50 for transrepression. How it is done: To measure the ability of test molecules to inhibit AP-1 induced transcriptional activity we utilized an A549 cell which was stably transfected with a plasmid containing 7×AP-1 DNA binding sites (pAP-1-Luc plasmid, Stratagene Co. La Jolla, Calif.) followed by the gene for luciferase. Cells were activated with 10 ng/ml of phorbol myristic acid (PMA) plus or minus test molecules for 7 hours. After 7 hours a luciferase reagent was added to measure luciferase enzymatic activity in the cell. After a 10 minute incubation of luciferase reagent with cells, luminescence was measured in a TopCount luminescence counter. Repression of AP-1 activity was calculated as the percentage decrease in the signal induced by PMA alone. […] IC50s were determined by using standard curve fitting methods such as Excel fit (Microsoft Co.). An IC50 is the test molecule concentration which causes a 50% repression of transcription, i.e. a 50% reduction of AP-1 activity.

Assay [4] concerns the target T3, GAL4 DNA binding domain linked to the ligand binding domain of GR (Homo sapiens, UniProt P04150).
T3 construct: expressed in transfected cells; host or cells: HeLa (stably transfected)
T3 sequence (P04150 524-758 limits assumed): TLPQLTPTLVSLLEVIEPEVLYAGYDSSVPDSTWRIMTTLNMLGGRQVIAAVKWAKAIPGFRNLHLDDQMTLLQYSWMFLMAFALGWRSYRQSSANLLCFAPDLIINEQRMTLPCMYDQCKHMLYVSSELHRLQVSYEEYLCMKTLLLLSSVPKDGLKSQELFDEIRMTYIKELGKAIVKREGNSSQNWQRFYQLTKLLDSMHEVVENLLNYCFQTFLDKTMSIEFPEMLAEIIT
The assay can be described thus: Cellular transcriptional assay (HeLa, GAL4-GR LBD, luciferase). The class given is cell-based. How it is done: In order to measure the ability of compounds to induce DNA binding and transcriptional activation in cells the following assay was performed. A HeLa cell line was stably transfected with a gene expressing a fusion protein consisting of the GAL4 DNA binding domain linked to the ligand binding domain of GR. Also transfected into these cells was a DNA binding site for GAL4 (5 repetitions of a 17-mer GAL4 binding site) linked to the beta-globin reporter in front of the luciferase gene. See Eisenmann, G., Cheynel, and Gronemeyer, H. (1995), Quand les cellules scintillent, Biofutur (Le Technoscope), 151: 8. […] After 20 hours the level of luciferase activity was measured using a Steady Glo Luciferase assay system (Promega Co., Madison, Wis.). […] EC50s were calculated by using standard curve fitting methods such as Excel Fit (Microsoft Co., Redmond, Wash.). An EC50 is the test molecule concentration required to cause a 50% stimulation of transcription.

In assay [5] the test system is tyrosine amino transferase mRNA. The assay can be described thus: cells. The conditions noted are these: read-out: EC50 for induction of tyrosine amino transferase mRNA. How it is done:
A second assay which measures the ability of compounds to induce the expression of tyrosine amino transferase mRNA in liver cells was also utilized to determine the ability of compounds to induce DNA binding. […] Test molecules were analyzed in the concentration range from 0.1 nM to 40 μM.

On to `Cc1ccc(-c2csc(NC(=O)C3(C)CC4(C#N)c5ccccc5C3c3ccccc34)n2)c2ccccc12` (centres unmarked) [Compound C], for which, in assay [1] (Compound D at 200 nM), the “displacement of Compound D allowing FITC-dexamethasone to rebind to GR” value is on record as “effective at displacing Compound D”. Further, the “inhibition of dexamethasone binding to GR by the compound on its own” value in assay [2] is recorded as “do not inhibit dexamethasone binding; also recorded: do not inhibit dexamethasone on their own”.

`Cc1ccc(-c2csc(NC(=O)C3(C)CC4(C#N)c5ccccc5C3c3ccccc34)n2)c2ccccc12` (centres unmarked) [Compound D]: the inhibition (commonly the drop in the measured response relative to a control, in per cent) at 0.2 µM in assay [1] (200 nM, read-out: inhibition of FITC-dexamethasone binding) was approximately 50%. Besides, the “inhibition of dexamethasone binding to GR by the compound on its own” value in assay [2] is given as “does inhibit dexamethasone”.

On to `C[C@@H]1C[C@H]2[C@@H]3CCC4=CC(=O)C=C[C@]4(C)[C@@]3(F)[C@@H](O)C[C@]2(C)[C@@]1(O)C(=O)CO` [dexamethasone], for which the IC50 (in general, the concentration needed to halve the response being measured) in assay [3] (Homo sapiens, A549, absence of Compound A) was found to be 3.4 nM; in assay [3] (Homo sapiens, A549, presence of 800 nM Compound A), 1.2 nM. In addition, in assay [3] (Homo sapiens, A549, presence of 800 nM Compound A, read-out: percent inhibition), the inhibition at 0.8 µM stood at 100%. In assay [3] (absence of Compound A), this molecule displayed a maximum percent inhibition of 75%. The “% stimulation” value in assay [4] (absence of Compound A) is on record as 100%; in assay [4] (presence of Compound A), 47%. The concentration giving a half-maximal response (EC50) (usually the midpoint of the concentration-response curve) in assay [5] was approximately 50 nM.
